Data taken from the Deep4Chem optical property database.

Assay: solvent given as SMILES

Q: With `CCCCN1C(=O)c2cc(Oc3ccc(C(C)(C)C)cc3)c3c4c(Oc5ccc(C(C)(C)C)cc5)c(Oc5ccc(C(C)(C)C)cc5)c5c6c(cc(Oc7ccc(C(C)(C)C)cc7)c(c7c(Oc8ccc(C(C)(C)C)cc8)c(Oc8ccc(C(C)(C)C)cc8)c(c2c37)C1=O)c64)C(=O)N(CCCC)C5=O` as the compound, how does the fluorescence lifetime (in ClC(Cl)Cl) read?
A: 6.3 ns

Q: Which fluorescence lifetime (in O) does the source give for `CCOC(=O)c1c(CSc2ccccc2)n(C)c2cc(Br)c(O)c(CN(C)C)c12` here?
A: 3 ns

Q: For `CCCCc1cc2cccc[n+]2[b-]2ccc(-c3cc[b-]4c(c3)c(CCCC)cc3cccc[n+]43)cc21`, which fluorescence lifetime (in C1CCCCC1) is on record?
A: 3.5 ns

Q: With `CC1=CC(C)=[N+]2C1=C(c1ccc(I)cc1)c1c(C)cc(C)n1[B-]21OCCO1` as the compound, how does the fluorescence lifetime (in ClC(Cl)Cl) read?
A: 0.93 ns

Q: Which fluorescence lifetime (in CC(C)=O) does the source give for `CS1(C)C(/C=C/C2=C(c3ccc(C(=O)O)cc3)C(=C/C=C3/N(CCCCS(=O)(=O)[O-])c4ccccc4S3(C)C)/CCC2)=[N+](CCCCS(=O)(=O)[O-])c2ccccc21` here?
A: 1.08 ns

Q: What about the fluorescence lifetime (in CCO) of the same compound?
A: 0.93 ns

Q: And the fluorescence lifetime (in CO)?
A: 0.72 ns

Q: And the fluorescence lifetime (in CS(C)=O)?
A: 1.26 ns

Q: What about the fluorescence lifetime (in ClC(Cl)Cl) of the same compound?
A: 1.31 ns

Q: What about the fluorescence lifetime (in ClCCl) of the same compound?
A: 1.19 ns

Q: What about the fluorescence lifetime (in O) of the same compound?
A: 0.33 ns

Q: For `COc1ccc(N(c2ccc(OC)cc2)c2cc3ccc4cc(B(c5c(C)cc(C)cc5C)c5c(C)cc(C)cc5C)cc5ccc(c2)c3c45)cc1`, which fluorescence lifetime (in C1CCOC1) is on record?
A: 6.1 ns

Q: And the fluorescence lifetime (in CC(C)=O)?
A: 3.2 ns

Q: And the fluorescence lifetime (in CCCCCC)?
A: 7.7 ns

Q: And the fluorescence lifetime (in Cc1ccccc1)?
A: 8.7 ns

Q: And the fluorescence lifetime (in ClC(Cl)Cl)?
A: 6.5 ns

Q: And the fluorescence lifetime (in ClCCl)?
A: 6.5 ns

Q: Which fluorescence lifetime (in CC#N) does the source give for `N#C/C(=C\c1ccc([N+](=O)[O-])cc1)c1nc(-c2ccccc2)cs1` here?
A: 2.85 ns

Q: Which fluorescence lifetime (in ClCCl) does the source give for `CN(c1ccccc1)c1ccc(N(c2ccccc2)c2ccc3ccc4c(N(c5ccccc5)c5ccc(N(C)c6ccccc6)cc5)ccc5ccc2c3c54)cc1` here?
A: 1.1 ns

Q: Which fluorescence lifetime (in O=P(c1ccccc1)(c1ccccc1)c1ccc2oc3ccc(P(=O)(c4ccccc4)c4ccccc4)cc3c2c1) does the source give for `c1ccc(-c2nc(-c3ccccc3)nc(-c3cc(-n4c5ccccc5c5ncccc54)cc(-n4c5ccccc5c5ncccc54)c3)n2)cc1` here?
A: 6.6 ns

Q: With `O=[N+]([O-])c1ccc(/C2=C3N=C(C(c4ccccc4)=C/3c3ccccc3)/C(c3ccc([N+](=O)[O-])cc3)=c3\[nH]/c(c(-c4ccccc4)c3-c3ccccc3)=C(/c3ccc([N+](=O)[O-])cc3)C3=N/C(=C(/c4ccc([N+](=O)[O-])cc4)c4[nH]c2c(-c2ccccc2)c4-c2ccccc2)C(c2ccccc2)=C3c2ccccc2)cc1` as the compound, how does the fluorescence lifetime (in ClCCl) read?
A: 0.395 ns

Q: For `F[B-]1(F)OC(c2ccc(N3CCCCC3)cc2)=Cc2cccc[n+]21`, which fluorescence lifetime (in ClC(Cl)Cl) is on record?
A: 2.68 ns

Q: Which fluorescence lifetime (in CCO) does the source give for `CCOc1ccc2c(-c3nc(-c4ccccc4)no3)cc(=O)oc2c1` here?
A: 6.7 ns

Q: For `CCOC(=O)/N=c1/oc2cc(OC)ccc2cc1C#N`, which fluorescence lifetime (in ClCCl) is on record?
A: 0.8 ns

Q: With `CC1=C(c2ccccc2)C(C)=[N+]2C1=C(c1c(-c3ccccn3)nc3ccccn13)c1c(C)c(-c3ccccc3)c(C)n1[B-]2(F)F` as the compound, how does the fluorescence lifetime (in ClCCl) read?
A: 3.4 ns

Q: With `C(=C\c1cc(/C=C/c2ccc(-n3c4ccccc4c4ccccc43)cc2)cc(/C=C/c2ccc(-n3c4ccccc4c4ccccc43)cc2)c1)/c1ccc(-n2c3ccccc3c3ccccc32)cc1` as the compound, how does the fluorescence lifetime (in C1CCOC1) read?
A: 4.56 ns

Q: And the fluorescence lifetime (in CC#N)?
A: 3.84 ns

Q: What about the fluorescence lifetime (in Cc1ccccc1) of the same compound?
A: 3.41 ns

Q: And the fluorescence lifetime (in ClCCl)?
A: 3.39 ns

Q: What does the source list for `C(=C\c1nc2ccccc2[nH]1)/c1ccc(/C=C/c2nc3ccccc3[nH]2)cc1`?
A: fluorescence lifetime (in C1CCOC1): 1.02 ns; fluorescence lifetime (in CC#N): 1.12 ns; fluorescence lifetime (in CC(C)=O): 1.07 ns; fluorescence lifetime (in CN(C)C=O): 0.997 ns; fluorescence lifetime (in CO): 1.06 ns; fluorescence lifetime (in CS(C)=O): 0.919 ns

Q: What does the source list for `COc1ccc(-c2nnc(-c3cc(-c4nnc(-c5ccc(OC)cc5)o4)c(-n4c5ccccc5c5ccccc54)cc3-n3c4ccccc4c4ccccc43)o2)cc1`?
A: fluorescence lifetime (in Cc1ccccc1): 5.1 ns; fluorescence lifetime (in O=P(c1ccccc1)(c1ccccc1)c1ccccc1Oc1ccccc1P(=O)(c1ccccc1)c1ccccc1): 7.3 ns

Q: Which fluorescence lifetime (in ClCCl) does the source give for `CCCCOc1ccc(-c2oc3c(-c4ccc(OCCCC)cc4)c4n(c3c2-c2ccc(OCCCC)cc2)[B-](F)(F)[N+]2=Cc3c(-c5ccc(OCCCC)cc5)c5oc(-c6ccc(OCCCC)cc6)c(-c6ccc(OCCCC)cc6)c5n3[B-](F)(F)[N+]2=C4)cc1` here?
A: 2.56 ns

Q: For `CN(C)c1ccc(/C=C/C=C/C=C/c2ccc(B(O)O)cc2)cc1`, which fluorescence lifetime (in C1CCCCC1) is on record?
A: 0.75 ns

Q: For `C[Si](C)(C)O[Si]1(O[Si](C)(C)C)n2c3c4ccccc4c2/N=C2N=C(/N=c4/c5ccccc5/c(n41)=N/C1=NC(=N\3)/c3ccccc31)c1ccccc1\2`, which fluorescence lifetime (in CN(C)C=O) is on record?
A: 5.57 ns

Q: With `Fc1ccc(-c2ccc(-c3cc(-c4ccccn4)nc(-c4ccccn4)c3)cc2)c(F)c1` as the compound, how does the fluorescence lifetime (in ClCCl) read?
A: 1.77 ns

Q: For `c1ccc2c(c1)Nc1ccccc1B2c1c2ccccc2cc2ccccc12`, which fluorescence lifetime (in ClCCl) is on record?
A: 16.8 ns

Q: Which fluorescence lifetime (in CC#N) does the source give for `C[n+]1cc2ccc3c[n+](C)c4ccccc4c3c2c2ccccc21` here?
A: 5.8 ns

Q: With `C[Si](C)(C)c1ccc(C#N)c2ccccc12` as the compound, how does the fluorescence lifetime (in C1CCCCC1) read?
A: 11 ns

Q: Which fluorescence lifetime (in CCO) does the source give for `O=C([O-])c1ccc(C2=c3cc4c5c(c3Oc3c2cc2c6c3CCCN6CCC2)CCC[N+]=5CCC4)c(C(=O)[O-])c1` here?
A: 4.87 ns

Q: And the fluorescence lifetime (in O)?
A: 4.36 ns

Q: For `CC[n+]1nc2cc3c4c(c2c2ccccc21)CCCN4CCC3`, which fluorescence lifetime (in O) is on record?
A: 3.6 ns

Q: Which fluorescence lifetime (in c1cc(-c2cccc(-n3c4ccccc4c4ccccc43)c2)cc(-n2c3ccccc3c3ccccc32)c1) does the source give for `O=C(c1ccc(C(=O)c2ccc(N3c4ccccc4Oc4ccccc43)cc2)cc1)c1ccc(N2c3ccccc3Oc3ccccc32)cc1` here?
A: 26 ns

Q: With `N=c1oc2cccc3c4c(-c5ccccc5)oc5cccc(c(c1-c1ccccc1)c23)c54` as the compound, how does the fluorescence lifetime (in ClC(Cl)Cl) read?
A: 2.6 ns

Q: With `CCOC(=O)/N=c1/oc2cc(N(CC)CC)ccc2cc1C#N` as the compound, how does the fluorescence lifetime (in ClCCl) read?
A: 3.6 ns

Q: Which fluorescence lifetime (in ClC(Cl)Cl) does the source give for `CC(C)(C)n1c(=O)c2cc3ccc4cccc5ccc(c2c1=O)c3c45` here?
A: 4.09 ns

Q: For `CCCCCCCCOc1ccc2c3cccc4c(OCCCCCCCC)ccc(c5cccc1c52)c43`, which fluorescence lifetime (in C1CCOC1) is on record?
A: 3.88 ns

Q: What about the fluorescence lifetime (in Cc1ccccc1) of the same compound?
A: 3.65 ns

Q: What about the fluorescence lifetime (in ClC(Cl)(Cl)Cl) of the same compound?
A: 3.82 ns

Q: And the fluorescence lifetime (in ClC(Cl)Cl)?
A: 3.77 ns

Q: And the fluorescence lifetime (in ClCCl)?
A: 4.17 ns

Q: What about the fluorescence lifetime (in c1ccncc1) of the same compound?
A: 4.01 ns

Q: With `CCn1c2ccccc2c2c3nsnc3c3c4ccccc4n(CC)c3c21` as the compound, how does the fluorescence lifetime (in CN(C)C=O) read?
A: 1.07 ns

Q: What about the fluorescence lifetime (in Cc1ccccc1) of the same compound?
A: 0.97 ns

Q: And the fluorescence lifetime (in ClCCl)?
A: 1 ns

Q: With `OCCSc1cccc2[n+]1[B-](F)(F)n1c(c3cccc4cccc1c43)=N2` as the compound, how does the fluorescence lifetime (in ClCCl) read?
A: 7.3 ns
